Measured values: ChEMBL document CHEMBL5038572, “Thermodynamic Dissection of Potency and Selectivity of Cytosolic Hsp90 Inhibitors” (J Med Chem, 2021)
The source made the active and inactive calls. The rule behind the calls is not given here.

Experiments:
[1] = target: T1, Heat shock protein HSP 90-alpha (Homo sapiens, UniProt P07900); test: Inhibition of FITC-GDA binding to human HSP90-alpha incubated for 2 hrs followed by FITC-GDA addition and measured after 5 hrs by fluorescence polarization competitive binding assay
[2] = target: T2, Heat shock protein 75 kDa, mitochondrial (Homo sapiens, UniProt Q12931); test: Binding affinity to TRAP1 (unknown origin) by fluorescence polarization competitive binding assay
T2 sequence (Q12931 whole entry): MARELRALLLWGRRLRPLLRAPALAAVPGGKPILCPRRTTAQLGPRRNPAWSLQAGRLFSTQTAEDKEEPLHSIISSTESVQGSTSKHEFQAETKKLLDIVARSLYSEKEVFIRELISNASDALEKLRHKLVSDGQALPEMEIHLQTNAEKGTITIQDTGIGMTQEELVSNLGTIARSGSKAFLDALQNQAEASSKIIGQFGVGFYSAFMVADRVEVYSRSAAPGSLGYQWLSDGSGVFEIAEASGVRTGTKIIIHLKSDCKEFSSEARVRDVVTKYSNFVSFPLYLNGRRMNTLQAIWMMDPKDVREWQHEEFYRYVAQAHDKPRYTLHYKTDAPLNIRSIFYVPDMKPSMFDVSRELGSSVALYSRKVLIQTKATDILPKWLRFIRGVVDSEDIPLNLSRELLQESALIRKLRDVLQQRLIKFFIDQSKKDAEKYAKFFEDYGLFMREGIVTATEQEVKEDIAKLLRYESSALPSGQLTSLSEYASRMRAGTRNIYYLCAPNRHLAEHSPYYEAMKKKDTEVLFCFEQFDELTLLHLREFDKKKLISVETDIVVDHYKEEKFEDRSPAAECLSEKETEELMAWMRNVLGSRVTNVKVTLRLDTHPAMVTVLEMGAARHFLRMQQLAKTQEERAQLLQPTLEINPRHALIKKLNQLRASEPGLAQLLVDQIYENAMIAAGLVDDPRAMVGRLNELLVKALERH

Endoplasmin = Endoplasmin (Homo sapiens, UniProt P14625); test: Binding affinity to GRP94 (unknown origin) by fluorescence polarization competitive binding assay
Chain of Endoplasmin (P14625 whole entry): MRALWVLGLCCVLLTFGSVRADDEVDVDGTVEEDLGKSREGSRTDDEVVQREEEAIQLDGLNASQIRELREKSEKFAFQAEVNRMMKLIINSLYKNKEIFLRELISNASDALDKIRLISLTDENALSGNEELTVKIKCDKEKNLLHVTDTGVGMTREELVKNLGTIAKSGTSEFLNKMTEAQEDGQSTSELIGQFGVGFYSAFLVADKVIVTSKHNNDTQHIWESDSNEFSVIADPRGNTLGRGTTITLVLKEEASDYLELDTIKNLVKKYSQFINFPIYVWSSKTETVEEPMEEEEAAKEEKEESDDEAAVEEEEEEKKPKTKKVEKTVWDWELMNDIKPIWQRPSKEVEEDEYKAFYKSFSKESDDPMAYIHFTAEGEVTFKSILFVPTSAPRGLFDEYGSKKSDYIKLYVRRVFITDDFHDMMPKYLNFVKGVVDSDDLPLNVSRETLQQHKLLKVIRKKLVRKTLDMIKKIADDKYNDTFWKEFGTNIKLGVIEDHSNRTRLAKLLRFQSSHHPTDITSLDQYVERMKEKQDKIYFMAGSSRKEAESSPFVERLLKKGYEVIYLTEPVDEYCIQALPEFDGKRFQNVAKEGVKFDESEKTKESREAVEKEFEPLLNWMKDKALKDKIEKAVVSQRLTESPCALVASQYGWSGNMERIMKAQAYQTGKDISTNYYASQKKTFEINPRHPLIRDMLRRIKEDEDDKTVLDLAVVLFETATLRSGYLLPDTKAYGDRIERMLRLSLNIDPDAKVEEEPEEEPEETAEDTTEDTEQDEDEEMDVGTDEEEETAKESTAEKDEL

[3] = target: Heat shock protein HSP 90-beta (Homo sapiens, UniProt P08238); test: Binding affinity to human HSP90-beta by fluorescence polarization competitive binding assay
Chain of Heat shock protein HSP 90-beta (P08238 whole entry, the tested form may be a part): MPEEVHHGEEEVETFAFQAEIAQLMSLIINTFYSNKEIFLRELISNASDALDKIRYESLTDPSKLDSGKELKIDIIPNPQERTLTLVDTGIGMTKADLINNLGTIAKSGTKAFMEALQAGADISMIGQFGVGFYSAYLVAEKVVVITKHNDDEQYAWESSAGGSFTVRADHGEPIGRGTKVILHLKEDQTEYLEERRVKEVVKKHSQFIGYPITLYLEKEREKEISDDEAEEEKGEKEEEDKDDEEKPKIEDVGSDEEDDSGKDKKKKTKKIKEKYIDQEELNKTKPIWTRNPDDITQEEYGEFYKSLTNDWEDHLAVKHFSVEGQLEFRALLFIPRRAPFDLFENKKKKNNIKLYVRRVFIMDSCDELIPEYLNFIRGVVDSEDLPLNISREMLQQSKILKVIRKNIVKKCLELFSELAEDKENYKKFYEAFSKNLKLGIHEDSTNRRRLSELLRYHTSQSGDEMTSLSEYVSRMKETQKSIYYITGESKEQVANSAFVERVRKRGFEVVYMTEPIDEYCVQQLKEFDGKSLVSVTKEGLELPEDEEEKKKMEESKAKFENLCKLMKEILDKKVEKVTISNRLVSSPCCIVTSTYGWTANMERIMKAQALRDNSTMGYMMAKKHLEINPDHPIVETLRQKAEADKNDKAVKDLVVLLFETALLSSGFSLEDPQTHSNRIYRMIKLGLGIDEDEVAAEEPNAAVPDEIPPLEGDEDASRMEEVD

[4] = target: T1, Heat shock protein HSP 90-alpha; test: Binding affinity to human HSP90-alpha N-terminal domain assessed as change in enthalpy by measuring dissociation constant at 100 uM at 25 degC by isothermal titration calorimetry
[5] = target: T1, Heat shock protein HSP 90-alpha; test: Binding affinity to human HSP90-alpha N-terminal domain assessed as change in enthalpy at 100 uM by isothermal titration calorimetry
[6] = target: T1, Heat shock protein HSP 90-alpha; test: Binding affinity to human HSP90-alpha N-terminal domain assessed as change in entropy at 100 uM by isothermal titration calorimetry
[7] = target: T1, Heat shock protein HSP 90-alpha; test: Binding affinity to human HSP90-alpha at protein to compound molar ratio of 1:1
[8] = target: T1, Heat shock protein HSP 90-alpha; test: Binding affinity to human HSP90-alpha assessed as change in heat capacity at 20 to 30 degC by isothermal titration calorimetry
[9] = target: T1, Heat shock protein HSP 90-alpha; test: Binding affinity to human HSP90-alpha N-terminal domain assessed as gibbs free energy change at 100 uM by isothermal titration calorimetry
[10] = target: T1, Heat shock protein HSP 90-alpha; test: Binding affinity to human HSP90-alpha N-terminal domain assessed as dissociation constant at 100 uM at 25 degC by isothermal titration calorimetry

Row | IC50 [1] | IC50 [2] | IC50 (Endoplasmin) | IC50 [3] | DeltaCp [8] | Structure (SMILES) | other results
1 | – | – | – | – | – | NC(=O)c1ccc(-c2nccc3c(-n4cnc(-c5ccccc5)c4)ccnc23)cc1NC1CCC(O)CC1 (stereo not given) | Ki [1]: 13 µM; Ki [2]: > 300 µM; Ki (Endoplasmin): > 300 µM; Ki [3]: 17 µM
2 | 293 µM | > 300 µM | > 300 µM | 89 µM | 0.56 kcal/mol.K | CC(C)c1n[nH]c2nccc(-n3cnc(-c4cccnc4)c3)c12 | Kd [4]: 2.7 µM; deltaH [5]: -5.7 kcal/mol; -TdeltaS [6]: -1.9 kcal/mol; Activity [7]: Active; deltaG [9]: -7.6 kcal/mol
3 | 300 µM | > 300 µM | > 300 µM | 218 µM | – | CC(C)c1n[nH]c2nccc(-n3cnc(-c4cnn(C)c4)c3)c12 | –
4 | – | – | – | – | -0.29 kcal/mol.K | CCc1cc(C(N)=O)ccc1-n1nc(C(C)C)c2c(-n3cnc(-c4cnn(C)c4)c3)ccnc21 [TAS-116] | Kd [10]: 0.17 µM
